# Measurements published in patent publication US11104690B2, “Indazole derivatives useful as inhibitors of diacylglyceride O-acyltransferase 2” (Merck Sharp & Dohme Corp., priority 2016, dated 2021).
# “And” between values parts separate entries of the source, which are not always exact repeats. Identical values can stand only once.
# Target: Human DGAT2 (Homo sapiens (Human), UniProt Q96PD7)
# Experiment: DGAT2 Enzymatic Activity Assay (triolein formation, LC/MS/MS)
# Type: biochemical
# Conditions: hDGAT2 Sf-9 membrane prep; 25 μM diolein, 10 μM oleoyl-CoA; room temperature
# How it was run: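 Triolein product, measured by LC/MS/MS as a ratio to internal standard, gave % inhibition and 4-parameter IC50. Reaction: 25 μM diolein, 10 μM oleoyl-CoA, 10 ng/μL hDGAT2 Sf-9 membrane, 100 mM Tris.Cl pH 7.0, 20 mM MgCl2, 5% ethanol, room temperature.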
# Human DGAT2, sequence (Q96PD7 whole entry): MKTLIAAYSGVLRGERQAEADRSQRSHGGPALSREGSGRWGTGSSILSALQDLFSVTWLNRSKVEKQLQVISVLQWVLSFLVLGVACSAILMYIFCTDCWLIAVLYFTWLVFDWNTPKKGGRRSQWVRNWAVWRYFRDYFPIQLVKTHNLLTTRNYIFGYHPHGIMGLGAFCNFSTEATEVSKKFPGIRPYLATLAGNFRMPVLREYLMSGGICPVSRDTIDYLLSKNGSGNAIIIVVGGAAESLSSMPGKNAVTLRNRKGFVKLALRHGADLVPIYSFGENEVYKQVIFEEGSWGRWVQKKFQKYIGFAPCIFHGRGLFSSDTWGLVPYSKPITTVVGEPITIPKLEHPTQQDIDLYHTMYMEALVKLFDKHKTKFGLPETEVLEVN
row,SMILES,IC50
1,"CC(C)(C)OC(=O)N1CC[C@@H](NC(=O)c2ccc3c(-c4ccccc4Cl)nn(-c4ccc(F)cc4)c3c2)C1 [Example 101, tert-butyl (3R)-3-({[3-(2-chlorophenyl)-1-(4-fluorophenyl)-1H-indazol-6-yl]carbonyl}amino)pyrrolidine-1-carboxylate]",136 nM
2,"N#Cc1ccc(Cl)c(-c2nn(-c3ccc(F)cc3)c3cc(C(=O)NC4CCS(=O)(=O)C4)ccc23)c1 (single isomer, unassigned) [Example 120-A, 3-(2-chloro-5-cyanophenyl)-N-(1,1-dioxidotetrahydrothiophen-3-yl)-1-(4-fluorophenyl)-1H-indazole-6-carboxamide]",4.2 nM
3,"C[C@@H]1CC[C@@H](O)[C@H]1NC(=O)c1ccc2c(-c3ccccc3Cl)nn(-c3ccc(F)cc3)c2c1 [Example 72, 3-(2-chlorophenyl)-1-(4-fluorophenyl)-N-[(1S,2R,5R)-2-hydroxy-5-methylcyclopentyl]-1H-indazole-6-carboxamide]",22 nM
4,"O=C(N[C@H]1CCC[C@@H]1O)c1ccc2c(-c3ccccc3Cl)nn(-c3ccc(F)cc3)c2c1 [Example 97, 3-(2-chlorophenyl)-1-(4-fluorophenyl)-N-[(1S,2S)-2-hydroxycyclopentyl]-1H-indazole-6-carboxamide]",155 nM
5,"COC[C@H](C)NC(=O)c1ccc2c(-c3ccccc3Cl)nn(-c3ccc(F)cc3)c2c1 [Example 12, 3-(2-chlorophenyl)-1-(4-fluorophenyl)-N-[(1S)-2-methoxy-1-methylethyl]-1H-indazole-6-carboxamide]",85 nM
6,"CC(CO)(CO)NC(=O)c1ccc2c(-c3ccccc3Cl)nn(-c3ccc(F)cc3)c2c1 [Example 46, 3-(2-chlorophenyl)-1-(4-fluorophenyl)-N-[2-hydroxy-1-(hydroxymethyl)-1-methylethyl]-1H-indazole-6-carboxamide]",49 nM
7,"O=C(NCCS(=O)(=O)NCc1ccccc1)c1ccc2c(-c3ccccc3Cl)nn(-c3ccc(F)cc3)c2c1 [Example 54, N-[2-(benzylsulfamoyl)ethyl]-3-(2-chlorophenyl)-1-(4-fluorophenyl)-1H-indazole-6-carboxamide]",121 nM
8,"CC1(NC(=O)c2ccc3c(-c4cccc(C5CC5)c4)nn(-c4ccc(F)cn4)c3c2)CCS(=O)(=O)C1 (single isomer, unassigned) [Example 125-B, 3-(3-cyclopropylphenyl)-1-(5-fluoropyridin-2-yl)-N-(3-methyl-1,1-dioxidotetrahydrothiophen-3-yl)-1H-indazole-6-carboxamide]",3 nM
9,"CC1(NC(=O)c2ccc3c(-c4ccc5c(c4)OCO5)nn(-c4ccc(F)cc4)c3c2)CCS(=O)(=O)C1 (single isomer, unassigned) [Example 139-A, 3-(1,3-benzodioxol-5-yl)-1-(4-fluorophenyl)-N-(3-methyl-1,1-dioxidotetrahydrothiophen-3-yl)-1H-indazole-6-carboxamide]",229 nM and 158 nM
10,"NS(=O)(=O)CCNC(=O)c1ccc2c(-c3ccccc3Cl)nn(-c3ccc(F)cc3)c2c1 [Example 20, 3-(2-chlorophenyl)-1-(4-fluorophenyl)-N-(2-sulfamoylethyl)-1H-indazole-6-carboxamide]",148 nM
11,"O=C(NCCS(=O)(=O)Nc1ccccn1)c1ccc2c(-c3ccccc3Cl)nn(-c3ccc(F)cc3)c2c1 [Example 55, 3-(2-chlorophenyl)-1-(4-fluorophenyl)-N-[2-(pyridin-2-ylsulfamoyl)ethyl]-1H-indazole-6-carboxamide]",383 nM
12,"O=C(NC1CCC(F)(F)C1)c1ccc2c(-c3ccccc3Cl)nn(-c3ccc(F)cc3)c2c1 (racemic) [Example 64, 3-(2-chlorophenyl)-N-(3,3-difluorocyclopentyl)-1-(4-fluorophenyl)-1H-indazole-6-carboxamide]",132 nM
13,"Cn1cc(C(C)(C)NC(=O)c2ccc3c(-c4ccccc4Cl)nn(-c4ccc(F)cc4)c3c2)cn1 [Example 16, 3-(2-chlorophenyl)-1-(4-fluorophenyl)-N-[1-methyl-1-(1-methyl-1H-pyrazol-4-yl)ethyl]-1H-indazole-6-carboxamide]",120 nM

# Continued, values first:
row,IC50,SMILES
1,4.5 nM,"CC1(NC(=O)c2ccc3c(-c4ccccc4Cl)nn(-c4ccc(F)cc4)c3c2)CCS(=O)(=O)C1 (single isomer, unassigned) [Example 1-A, 3-(2-Chlorophenyl)-1-(4-fluorophenyl)-N-(3-methyl-1,1-dioxidotetrahydrothiophen-3-yl)-1H-indazole-6-carboxamide]"
2,6.4 nM,"CC1(NC(=O)c2ccc3c(-c4cccc(C#N)c4)nn(-c4ccc(F)cc4)c3c2)CCS(=O)(=O)C1 (single isomer, unassigned) [Example 117-B, 3-(3-cyanophenyl)-1-(4-fluorophenyl)-N-(3-methyl-1,1-dioxidotetrahydrothiophen-3-yl)-1H-indazole-6-carboxamide]"
3,340 nM,"Cn1nnc2ccc(-c3nn(-c4ccc(F)cc4)c4cc(C(=O)NC5(C)CCS(=O)(=O)C5)ccc34)cc21 (racemic) [Example 163, 1-(4-fluorophenyl)-3-(1-methyl-1H-benzotriazol-6-yl)-N-(3-methyl-1,1-dioxidotetrahydrothiophen-3-yl)-1H-indazole-6-carboxamide]"
4,249 nM,"CC1(NC(=O)c2ccc3c(-c4cccc(C(N)=O)c4)nn(-c4ccc(F)cc4)c3c2)CCS(=O)(=O)C1 (racemic) [Example 149, 3-(3-carbamoylphenyl)-1-(4-fluorophenyl)-N-(3-methyl-1,1-dioxidotetrahydrothiophen-3-yl)-1H-indazole-6-carboxamide]"
5,31 nM,"CC1(NC(=O)c2ccc3c(-c4cccc(Cl)c4)nn(-c4ccc(F)cc4)c3c2)CCS(=O)(=O)C1 (single isomer, unassigned) [Example 158-A, 3-(3-chlorophenyl)-1-(4-fluorophenyl)-N-(3-methyl-1,1-dioxidotetrahydrothiophen-3-yl)-1H-indazole-6-carboxamide]"
6,45 nM,"O=C(NC1(CO)CCSC1)c1ccc2c(-c3ccccc3Cl)nn(-c3ccc(F)cc3)c2c1 (racemic) [Example 98, 3-(2-chlorophenyl)-1-(4-fluorophenyl)-N-[3-(hydroxymethyl)tetrahydrothiophen-3-yl]-1H-indazole-6-carboxamide]"
7,580 nM,"CCOC(=O)C1(NC(=O)c2ccc3c(-c4ccccc4Cl)nn(-c4ccc(F)cc4)c3c2)CC1 [Example 62, ethyl 1-({[3-(2-chlorophenyl)-1-(4-fluorophenyl)-1H-indazol-6-yl]carbonyl}amino)cyclopropane carboxylate]"
8,461 nM,"COC(=O)C1(NC(=O)c2ccc3c(-c4ccccc4Cl)nn(-c4ccc(F)cc4)c3c2)CCSC1 (racemic) [Example 59, methyl 3-({[3-(2-chlorophenyl)-1-(4-fluorophenyl)-1H-indazol-6-yl]carbonyl}amino)tetra-hydrothiophene-3-carboxylate]"
9,61 nM,"CC1(NC(=O)c2ccc3c(-c4cc(C(N)=O)ccc4Cl)nn(-c4ccc(F)cc4)c3c2)CCS(=O)(=O)C1 (single isomer, unassigned) [Example 121-B, 3-(5-carbamoyl-2-chlorophenyl)-1-(4-fluorophenyl)-N-(3-methyl-1,1-dioxidotetrahydrothiophen-3-yl)-1H-indazole-6-carboxamide]"
10,455 nM,"COc1cc(-c2nn(-c3ccc(F)cc3)c3cc(C(=O)NC4(C)CCS(=O)(=O)C4)ccc23)ccn1 (single isomer, unassigned) [Example 140-A, 1-(4-fluorophenyl)-3-(2-methoxypyridin-4-yl)-N-(3-methyl-1,1-dioxidotetrahydrothiophen-3-yl)-1H-indazole-6-carboxamide]"
11,222 nM,"COC(=O)c1cccc(-n2nc(-c3ccccc3Cl)c3ccc(C(=O)NC4(C)CCS(=O)(=O)C4)cc32)c1 (racemic) [Example 180, methyl 3-{3-(2-chlorophenyl)-6-[(3-methyl-1,1-dioxidotetrahydrodioxidotetra-hydrodioxidotetrahydrodioxido-tetrahydro-thiophen-3-yl)carbamoyl]-1H-indazol-1-yl}benzoate]"
12,353 nM,"COc1ccc(-c2nn(-c3ccc(F)cc3)c3cc(C(=O)NC4(C)CCS(=O)(=O)C4)ccc23)cn1 (single isomer, unassigned) [Example 155-A, 1-(4-fluorophenyl)-3-(6-methoxypyridin-3-yl)-N-(3-methyl-1,1-dioxidotetrahydrothiophen-3-yl)-1H-indazole-6-carboxamide]"
13,7 nM,"CC1(NC(=O)c2ccc3c(-c4cccc(C#N)c4)nn(-c4ccc(F)cc4)c3c2)CCS(=O)(=O)C1 (centres unmarked) [Example 117, 3-(3-cyanophenyl)-1-(4-fluorophenyl)-N-(3-methyl-1,1-dioxidotetrahydrothiophen-3-yl)-1H-indazole-6-carboxamide]"
